According to patent US12643867B2, “Compositions and uses thereof” (University of Virginia Patent Foundation, priority 2017, dated 2026):

What was measured:
[1] = molecular target: T1, recombinant DGKα (Rattus norvegicus, UniProt P51556); assay: Gel-based ATP acyl phosphate chemical proteomic assay; assay type: binding; details: compounds 100 μM (ATP 1 mM; RF001 at indicated concentrations), 30 min; probe 10 μM
T1 construct: expressed in transfected cells; host or cells: HEK293T (SILAC HEK293T for LC-MS)
Method: Cell pellets were resuspended in kinase buffer (Dulbecco's PBS (DPBS, Hyclone), 20 mM MgCl2, EDTA-free protease inhibitors (Pierce)) and then lysed by sonication (3×1 sec pulse, 20% amplitude). The cell lysates were then subjected to centrifugation (100,000×g, 45 min at 4° C.) to isolate the cytosolic fraction in the supernatant and the membrane fraction as a pellet. The membrane pellet was resuspended in kinase buffer by sonication. […] The only exception was experiments involving DGKE; recombinant DGKE protein was most prominently expressed in the membrane fraction and so this fraction was utilized to study DGKE enzyme (see FIG. 8). Protein concentrations were measured using the Bio-Rad DC protein assay. Samples were stored at −80° C. until use.
Proteome concentration was adjusted to 2 mg/mL in kinase buffer. Proteomes were first pre-treated with compound (0.6 μL, 50× stock in DMSO) mixed with gentle flicking, and incubated for 30 min at 25° C. in a microfuge tube (30 μL reaction volume). […] Reactions were then quenched with 10 AL of 4×SDS-PAGE loading buffer. Protein samples (15 μL) were loaded onto 4-20% TGX Stain-Free Protein Midi Gel and resolved by SDS-PAGE at 150V for 55 min. Proteins were then transferred to a nitrocellulose blot by Bio-Rad Trans-Blot Turbo Transfer System (25V. 10 min) to enhance sensitivity. The nitrocellulose blot was then incubated in blocking solution (30 mL, 3% BSA in TBS-T) for 1 h at 25° C. with gentle shaking. The blot was then transferred immediately to antibody solution (30 mL, 5% BSA in ddH2O with 0.1% Tween20 and 1:3000 Streptavidin DyLight 550) and incubated for 2 h at 25° C. with gentle shaking. The blot was then rinsed 5 times for 5 min in TBS-T. and then transferred into ddH2O. The blot was then imaged by in-blot fluorescence scanning on a ChemiDoc MP Imaging System. Fluorescence intensity signals were normalized to total lane protein using the Bio-rad Stain Free imaging (Posch et al., 2013).
The percentage of enzyme activity remaining was determined by comparing integrated band intensities or luminescence of inhibitor—with DMSO-treated samples for gel-based chemical proteomic or ADP-glo assays, respectively. For both chemical proteomic and ADP-glo methods, nonlinear regression analysis was used to determine the IC50 values from a dose-response curve generated using GraphPad Prism. Data are shown as mean±s.e.m. Determination of significance was performed by one-way ANOVA. All statistical analyses were performed using GraphPad Prism.

[2] = molecular target: Alpha (DGK alpha; only in reference sheet cells) (Rattus norvegicus, UniProt P51556); assay: DGK isoform % Activity screen; assay type: biochemical; details: for activity at 100 µM: read-out: 100 uM % Activity (section without isoform head; Alpha); for activity at 1000 µM: read-out: 1 mM % Activity (section without isoform head; Alpha)
[3] = molecular target: Gamma (DGK gamma) (Homo sapiens, UniProt P49619); assay: DGK isoform % Activity screen; assay type: biochemical; details: for activity at 1000 µM: read-out: 1 mM % Activity, Gamma
[4] = molecular target: Zeta (DGK zeta) (Homo sapiens, UniProt Q13574); assay: DGK isoform % Activity screen; assay type: biochemical; details: for activity at 1000 µM: read-out: 1 mM % Activity, Zeta
Sequence of Zeta (DGK zeta) (Q13574 whole entry, canonical isoform): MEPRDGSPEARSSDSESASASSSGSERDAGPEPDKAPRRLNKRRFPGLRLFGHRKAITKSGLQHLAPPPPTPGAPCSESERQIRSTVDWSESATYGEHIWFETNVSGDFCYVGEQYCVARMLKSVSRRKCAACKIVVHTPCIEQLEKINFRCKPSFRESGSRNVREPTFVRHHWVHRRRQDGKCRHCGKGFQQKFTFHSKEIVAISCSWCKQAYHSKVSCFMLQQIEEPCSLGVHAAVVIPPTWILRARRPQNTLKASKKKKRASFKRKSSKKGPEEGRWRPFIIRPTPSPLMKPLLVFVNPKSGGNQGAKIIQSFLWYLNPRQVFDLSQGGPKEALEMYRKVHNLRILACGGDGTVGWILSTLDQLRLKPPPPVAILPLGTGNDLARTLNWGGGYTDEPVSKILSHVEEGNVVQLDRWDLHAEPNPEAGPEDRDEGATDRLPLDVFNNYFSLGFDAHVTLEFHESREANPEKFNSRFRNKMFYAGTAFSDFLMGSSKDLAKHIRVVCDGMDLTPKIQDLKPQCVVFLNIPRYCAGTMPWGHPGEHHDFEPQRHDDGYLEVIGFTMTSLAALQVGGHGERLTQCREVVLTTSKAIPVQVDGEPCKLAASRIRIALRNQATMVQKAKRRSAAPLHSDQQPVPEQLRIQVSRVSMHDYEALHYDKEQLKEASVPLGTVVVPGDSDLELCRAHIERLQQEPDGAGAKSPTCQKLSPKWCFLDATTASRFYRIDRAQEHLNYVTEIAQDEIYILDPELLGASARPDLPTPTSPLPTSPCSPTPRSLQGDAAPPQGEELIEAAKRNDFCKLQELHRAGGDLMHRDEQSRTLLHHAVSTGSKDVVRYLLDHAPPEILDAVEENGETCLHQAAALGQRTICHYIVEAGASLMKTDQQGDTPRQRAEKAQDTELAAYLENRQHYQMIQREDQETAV

Sequence of Gamma (DGK gamma) (P49619 whole entry, canonical isoform): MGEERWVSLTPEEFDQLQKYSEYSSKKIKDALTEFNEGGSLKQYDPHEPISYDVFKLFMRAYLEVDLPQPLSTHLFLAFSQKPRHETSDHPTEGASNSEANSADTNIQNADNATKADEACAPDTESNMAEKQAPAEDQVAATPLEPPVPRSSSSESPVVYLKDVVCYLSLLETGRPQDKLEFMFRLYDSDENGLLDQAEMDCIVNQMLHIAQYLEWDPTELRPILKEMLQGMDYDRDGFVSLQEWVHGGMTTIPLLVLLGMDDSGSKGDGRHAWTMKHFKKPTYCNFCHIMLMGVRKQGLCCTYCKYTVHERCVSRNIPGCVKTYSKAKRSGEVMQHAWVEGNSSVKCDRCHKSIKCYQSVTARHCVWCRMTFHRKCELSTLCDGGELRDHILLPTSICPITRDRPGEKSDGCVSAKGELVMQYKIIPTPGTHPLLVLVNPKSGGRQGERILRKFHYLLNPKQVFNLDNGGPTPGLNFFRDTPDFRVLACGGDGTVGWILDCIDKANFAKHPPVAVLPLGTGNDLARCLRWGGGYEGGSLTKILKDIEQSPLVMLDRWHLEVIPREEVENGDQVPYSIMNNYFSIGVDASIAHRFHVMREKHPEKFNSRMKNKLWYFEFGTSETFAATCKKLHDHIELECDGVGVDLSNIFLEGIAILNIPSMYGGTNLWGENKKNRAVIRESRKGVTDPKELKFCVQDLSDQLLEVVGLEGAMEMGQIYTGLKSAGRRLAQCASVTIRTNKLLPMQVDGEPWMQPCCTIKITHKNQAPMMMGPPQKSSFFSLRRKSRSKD
Sequence of Alpha (DGK alpha; only in reference sheet cells) (P51556 whole entry, canonical isoform): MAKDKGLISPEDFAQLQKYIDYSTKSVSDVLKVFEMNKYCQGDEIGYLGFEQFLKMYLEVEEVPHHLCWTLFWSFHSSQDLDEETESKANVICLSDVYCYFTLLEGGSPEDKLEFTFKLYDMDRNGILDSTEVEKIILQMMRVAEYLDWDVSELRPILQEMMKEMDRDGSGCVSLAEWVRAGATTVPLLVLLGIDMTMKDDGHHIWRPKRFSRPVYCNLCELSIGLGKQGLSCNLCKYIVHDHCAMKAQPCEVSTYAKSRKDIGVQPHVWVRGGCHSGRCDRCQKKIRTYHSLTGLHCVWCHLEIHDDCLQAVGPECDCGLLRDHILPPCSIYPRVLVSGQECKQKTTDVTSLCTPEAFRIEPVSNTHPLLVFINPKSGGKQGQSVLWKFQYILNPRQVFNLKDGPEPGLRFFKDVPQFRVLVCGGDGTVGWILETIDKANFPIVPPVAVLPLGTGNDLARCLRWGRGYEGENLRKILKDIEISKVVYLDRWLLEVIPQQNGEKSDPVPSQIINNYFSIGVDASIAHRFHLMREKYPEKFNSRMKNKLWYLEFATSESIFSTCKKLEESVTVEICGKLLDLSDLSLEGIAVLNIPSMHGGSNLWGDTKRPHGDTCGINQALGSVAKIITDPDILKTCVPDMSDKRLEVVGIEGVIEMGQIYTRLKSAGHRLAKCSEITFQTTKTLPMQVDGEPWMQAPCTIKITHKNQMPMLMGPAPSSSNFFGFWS
T1 sequence (P51556 whole entry): as the sequence (P51556 whole entry, canonical isoform) above

Compound	blockade of DGKα ATP probe labeling [1]	activity at 100 µM [2]	activity at 1000 µM [2]	activity at 100 µM [3]	activity at 1000 µM [3]	activity at 100 µM [4]	activity at 1000 µM [4]
Cc1nc2sccn2c(=O)c1CCN1CCC(=C(c2ccccc2)c2ccc(F)cc2)CC1 [R59022]	blocked DGKα probe labeling	–	–	–	–	–	–
O=c1c2ccccc2[nH]c(=S)n1CCN1CCC(=C(c2ccc(F)cc2)c2ccc(F)cc2)CC1 [R59949]	blocked DGKα probe labeling	–	–	–	–	–	–
Fc1ccc(C(c2ccc(F)cc2)N2CCNCC2)cc1 [TH001]	–	72%	0%	99%	0%	102%	0%
c1ccc2c(c1)-c1ccccc1C2N1CCNCC1 [TH002]	–	84%	0%	–	–	98%	0%
CN1C2CCC1CC(OC(c1ccccc1)c1ccccc1)C2 (stereo not drawn) [TH004]	–	–	–	–	–	82%	21%
CN(C)CCOc1ccc(/C(=C(/CCCl)c2ccccc2)c2ccccc2)cc1 [TH005]	–	103%	14%	–	–	86%	0%
Fc1ccc(C(c2ccc(F)cc2)C2CCNCC2)cc1 [TH010]	–	–	64%	–	–	96%	30%
c1ccc(C(=C2CCNCC2)c2ccccc2)cc1 [TH011]	–	78%	0%	–	–	96%	0%
c1ccc(C(c2ccccc2)C2CCNCC2)cc1 [TH012]	–	–	41%	–	–	99%	15%
Fc1ccc(C(=C2CCCN(Cc3ccccc3)C2)c2ccc(F)cc2)cc1 [TH014]	–	–	160%	–	–	140%	327%
CC(=O)N1CCN(C(c2ccc(F)cc2)c2ccc(F)cc2)CC1 [TH016]	–	–	139%	–	–	98%	108%
Cc1ccc(C(=C2CCNCC2)c2ccc(C)cc2)cc1 [TH019]	–	92%	1%	–	–	103%	0%
Fc1ccc(C(c2ccc(F)cc2)N2CCN(Cc3ccc4ccccc4n3)CC2)cc1 [TH022]	–	103%	60%	–	–	135%	193%
Fc1ccc(C(c2ccc(F)cc2)N2CCN(C3CCNCC3)CC2)cc1 [TH024]	–	84%	3%	–	–	72%	0%
COc1ccc(C(=C2CCNCC2)c2ccc(OC)cc2)cc1 [TH025]	–	79%	4.4%	–	–	103%	0%
OC(c1ccc(F)cc1)(c1ccc(F)cc1)C1CCNCC1 [TH028]	–	96%	0%	–	–	125%	0%
Fc1ccc(C(=C2CCN(Cc3ccc4ccccc4n3)CC2)c2ccc(F)cc2)cc1 [TH029]	–	125%	73%	–	–	169%	252%
OCCN1CCN(C(c2ccc(F)cc2)c2ccc(F)cc2)CC1 [TH030]	–	103%	36%	–	–	91%	5%
OCCCN1CCN(C(c2ccc(F)cc2)c2ccc(F)cc2)CC1 [TH031]	–	107%	26%	–	–	105%	0%
Fc1ccc(C(c2ccc(F)cc2)N2CCN(CCCN3CCCC3)CC2)cc1 [TH032]	–	94%	8%	–	–	80%	0%
Fc1ccc(C(c2ccc(F)cc2)N2CCN(CCCN3CCN(C(c4ccc(F)cc4)c4ccc(F)cc4)CC3)CC2)cc1 [TH033]	–	72%	4%	–	–	82%	–
CS(=O)(=O)N1CCC(=C(c2ccc(F)cc2)c2ccc(F)cc2)CC1 [TH035]	–	88%	40%	–	–	112%	100%
CS(=O)(=O)N1CCN(C(c2ccc(F)cc2)c2ccc(F)cc2)CC1 [TH036]	–	93%	74%	–	–	108%	105%
OC(c1ccc(C(F)(F)F)cc1)(c1ccc(C(F)(F)F)cc1)C1CCNCC1 [TH039]	–	81%	6%	91%	1%	94%	1%
Clc1ccc(C(=C2CCNCC2)c2ccc(Cl)cc2)cc1 [TH040]	–	78%	4%	101%	5%	85%	0%
